Like-named read-outs stand apart in the source and are kept apart here.

The target of data set [1] is T1, human B1 receptor (Homo sapiens, UniProt P46663).
T1 construct: host or cells: CHO-K1
T1 sequence (P46663 1-353): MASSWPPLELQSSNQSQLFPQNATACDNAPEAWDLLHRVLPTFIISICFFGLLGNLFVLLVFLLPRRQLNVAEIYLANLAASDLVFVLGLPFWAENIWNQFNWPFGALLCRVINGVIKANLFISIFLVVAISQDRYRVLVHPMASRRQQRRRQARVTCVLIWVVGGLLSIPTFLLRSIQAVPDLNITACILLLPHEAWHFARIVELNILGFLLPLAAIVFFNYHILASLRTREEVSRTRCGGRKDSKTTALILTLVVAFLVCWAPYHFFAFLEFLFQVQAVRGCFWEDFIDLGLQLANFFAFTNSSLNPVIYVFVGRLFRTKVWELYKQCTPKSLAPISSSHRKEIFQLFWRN
Description: Calcium flux assay (FLIPR) with recombinant CHO-K1 cells expressing human B1 receptor. It is filed as cell-based. The note with it: agonist Lys-(Des-Arg)-Bradykinin. How it is done: The potency to inhibit the Bradykinin B1 receptors was determined for the example compounds of this invention in a cell-based fluorescent calcium-mobilisation assay. The assay measures the ability of example compounds to inhibit Bradykinin B1 receptor agonist-induced increase of intracellular free Ca^2+ in the cell line expressing B1 receptor. Specifically, calcium indicator—loaded cells are pre-incubated in the absence or presence of different concentrations of example compounds followed by the stimulation with a selective B1 receptor agonist peptide. The change of the intracellular Ca^2+ concentration is monitored with a fluorescent plate reader FLIPR (Molecular Devices).
Calcium flux Assay (FLIPR) with recombinant cells for Bradykinin B1 receptor antagonist, either in the presence (hB1 IC50) or absence (hB1 free IC50) of 0.1% BSA in assay buffer
CHO-K1 cell line expressing human B1 receptor was purchased from Euroscreen (Gosselies, Belgium, with reference name hB1-D1). The cells were grown in Nutrient Mixture Ham's F12 (Sigma) containing 10% Foetal bovine serum (Sigma) and 400 μg/mL G418 (Sigma), 5 μg/mL puromycin (Sigma).
For the calcium flux assay, 80% confluent cells were detached from the culture vessels with Versene (Gibco), and seeded into 384-well plates (Cell binding Surface; Corning, N.Y.; #3683) at a density of 15,000 cells per well. Cells were seeded in a volume of 50 μL in medium without antibiotics and incubated overnight in a humidified atmosphere with 5% CO2 at 37° C. […] The calcium indicator loaded cells were incubated at 37° C. for 2 hrs. Extracellular dye was then removed and each well was filled with 45 μL of assay buffer. Cell plates were kept in dark until used. Example compounds were assayed at 8 concentrations in triplicate. Serial 10-fold dilutions in 100% DMSO were made at a 100-times higher concentration than the final concentration, and then diluted 1:10 in assay buffer. 5 μL of each diluted compound was added to the well of cell plates (yielding final concentration with 1% DMSO), and incubated for 30 min at 28° C. before the addition of B1 receptor agonist on the FLIPR instrument.
Agonist plates contained the agonist Lys-(Des-Arg)-Bradykinin (Bachem, Brackley) at 3.5×EC90 in assay buffer with 1% DMSO. The addition of agonist 20 μl per well to the assay plate was carried out on the FLIPR instrument while continuously monitoring Ca^2+-dependent fluorescence at 538 nm. A peptide antagonist Lys-(Des-Arg-Leu)-Bradykinin (Bachem, Brackley) at 20 µM was used to determine the full inhibition as control.
Peak fluorescence was used to determine the response to agonist obtained at each concentration of example compound by the following equation:
% Response=100*(RFU(example compound)−RFU(control)/(RFU(DMSO)−RFU(control)) • Control=full inhibition by the peptide antagonist Lys-(Des-Arg-Leu)-Bradykinin at 20 μM
The response values were plotted against the logarithm of the compound concentrations. The compounds were tested in triplicates per plate and mean values were plotted in Excel XLfit to determine IC50 values, percentage of maximal inhibition and the Hill slopes.
On the technique in general: Calcium flux is commonly read through the fluorescence of an indicator in the cells.

The subject of data set [2] is IL-8 secretion. Description: Bradykinin B1 receptor agonist-induced secretion of IL-8 in human IMR-90 cells. It is filed as cell-based. The note with it: 0.1 μM Lys-[Des-Arg9]Bradykinin and 0.1 μM Sar-[D-Phe8]-des-Arg9-Bradykinin, 5 hours. The source says:
(§1) Inhibitory Activity on Bradykinin B1 Receptor Agonist-Induced Secretion of IL-6 and IL-8 in Human IMR-90 Cells
(§2) The effect of the compound examples on secretion of the cytokine IL-6 and IL-8 was investigated in the human foetal lung fibroblast IMR-90 cell line. Here the induction of the cytokine secretion was induced by the Bradykinin B1 receptor agonists Lys-[Des-Arg9]Bradykinin (CAS 71800-36-7, Tocris Bioscience) and Sar-[D-Phe8]-des-Arg9-Bradykinin (CAS 126959-88-4, Tocris Bioscience) leading to the activation of the Bradykinin B1-driven signalling pathway. […]
(§3) IMR-90 cells were cultured in Eagle's Minimum Essential Medium (EMEM) containing 2 mM L-glutamine, 1 g/L glucose, 1.5 g/L NaHCO3, 1 mM sodium pyruvate and non-essential amino acids (ATCC, 30-2003™) supplemented with 10% FBS (Biochrom, 50615) and 50 U/mL Penicillin, 50 μg/mL Streptomycin (PAA, P11-010). […] The compound examples were serially diluted in 100% DMSO and evaluated at 8 different concentrations within the range of 3 nM and 10 μM and a final DMSO concentration of 0.4%. […] The amount of IL-6 and IL-8 in the supernatant was determined using the Human ProInflammatory Panel II (4-Plex) (MSD, K15025B) according to manufacturer's instruction. […] The cell viability was measured using the CellTiter-Glo Luminescent Assay (Promega, G7571) following the manufacturers protocol. […]

The subject of data set [3] is IL-6 secretion. Description: Bradykinin B1 receptor agonist-induced secretion of IL-6 in human IMR-90 cells. It is filed as cell-based. The note with it: 0.1 μM Lys-[Des-Arg9]Bradykinin and 0.1 μM Sar-[D-Phe8]-des-Arg9-Bradykinin, 5 hours.
Source text: as §1, §2, §3

For data set [4], the system named is stimulated IMR-90 cells. Nature of the data set: Cell viability, CellTiter-Glo Luminescent Assay. It is filed as cell-based, human. How it is done:
IMR-90 cells were cultured in Eagle's Minimum Essential Medium (EMEM) containing 2 mM L-glutamine, 1 g/L glucose, 1.5 g/L NaHCO3, 1 mM sodium pyruvate and non-essential amino acids (ATCC, 30-2003™) supplemented with 10% FBS (Biochrom, 50615) and 50 U/mL Penicillin, 50 μg/mL Streptomycin (PAA, P11-010). The assay was performed in EMEM and a cell density of […] IMR-90 cells/96-well. The compound examples were serially diluted in 100% DMSO and evaluated at 8 different concentrations within the range of 3 nM and 10 μM and a final DMSO concentration of 0.4%. The IMR-90 cells were incubated with the respective concentration of the compound for 30 min. […] The amount of IL-6 and IL-8 in the supernatant was determined using the Human ProInflammatory Panel II (4-Plex) (MSD, K15025B) according to manufacturer's instruction. […] Plates were washed three times with phosphate-buffered saline (PBS; 137 mM NaCl, 2.7 mM KCl, 6.5 mM Na2HP04, 1.7 mM KH2P04) containing 0.05% Tween-20 (Bio-Rad, 161-0781) and electrochemiluminescence detected using the MSD Sector Imager 6000 plate reader. The cell viability was measured using the CellTiter-Glo Luminescent Assay (Promega, G7571) following the manufacturers protocol. […] After incubation and shaking for 10 minutes luminescent signal was measured which was proportional to the amount of ATP present. […]
Background: Cellular ATP, detected with luciferase, serves as a proxy for viable cell number.

The target in data set [5] is T2, native human B1 receptors (Homo sapiens, UniProt P46663).
T2 construct: which express native human B1 receptors after induction with human IL-1; Coriell Institute; host or cells: IMR-90 human foetal lung fibroblasts, induced with human IL-1
T2 sequence (P46663 1-353): T1 sequence (P46663 1-353)
Description: Calcium flux assay (FLIPR) with IMR-90 human foetal lung fibroblasts after IL-1 induction. It is filed as cell-based. The note with it: IMR-90 fibroblasts induced with human IL-1; 0.1% BSA in assay buffer; agonist Lys-(Des-Arg)-Bradykinin at EC90; read-out: hB1 IC50 IMR90. How it is done:
Calcium Flux Assay (FLIPR) with Human Fibroblasts for Bradykinin B1 Receptor Antagonist (hB1 IMR-90 IC50)
The Calcium flux Assay was carried out utilising IMR-90 human foetal lung fibroblasts (American Type Culture Collection, Rockville, Md.; and Coriell Institute, Camden, N.J.), which express native human B1 receptors after induction with human IL-1[…].
The fibroblasts were cultured in complete growth media comprised of Dulbecco's modified Eagle's medium (DMEM; Sigma) containing 10% foetal bovine serum, 4 mM L-glutamine, and 1% nonessential amino acids. The cells were maintained in a humidified atmosphere with 5% CO2 at 37° C. and were sub-cultured at a ratio of 1:3, every other day.
For the assay, IMR-90 fibroblasts were harvested using TrypLE Express (GIBCO/Invitrogen) and seeded into 384-well plates (Corning Cellbinding Surface, Cat. 3683) at a density of 15000 cells/well. The following day, cells were treated with 0.35 ng/mL human IL-1[…] in 10% FBS/MEM for 3 h to up-regulate B1 receptors. Induced cells were loaded with fluorescent calcium indicator by incubation with 2.5 μM Fluo-4/AM (Invitrogen) at 37° C., 5% CO2 for 2 h in the presence of 2.5 mM probenecid in 1% FBS/MEM. Extracellular dye was removed by washing with assay buffer (2.5 mM probenecid and 0.1% BSA in 20 mM HEPES/HBSS without bicarbonate or phenol red, pH 7.5). Example compounds were assayed at 8 concentrations in triplicate. After addition of example compounds to the cell plate and incubation for 30 min at 28° C., the addition of B1 agonist Lys-(Des-Arg)-Bradykinin (Bachem, Brackley) at a final concentration of EC90 was carried out on the FLIPR instrument while continuously monitoring Ca^2+-dependent fluorescence at 538 nm. A peptide antagonist Lys-(Des-Arg-Leu)-Bradykinin (Bachem, Brackley) at 20 μM was used to determine the full inhibition as control. IC50 values were determined by the same way described for the FLIPR assay with recombinant cells.

The conditions of data set [6]: due to metabolic liability; prior art; cited from earlier work.
The mark [7] stands for this setting: absence of 0.1% BSA in assay buffer, read-out: hB1 free IC50.

The IC50 is the concentration that gives 50% inhibition. In the case of `O=C(O)c1cc(NC(=O)C2CC2c2cccc(Cl)c2)ccc1-c1cnn(C2CCC2)c1` (racemic) [Example 1, 5-({[2-(3-chlorophenyl)cyclopropyl]carbonyl}amino)-2-(1-cyclobutyl-1H-pyrazol-4-yl)benzoic acid], the IC50 in data set [1] (setting [7]) was 0.207 µM; in data set [1] (presence of 0.1% BSA in assay buffer, read-out: hB1 IC50) it was 0.065 µM; in data set [2], 0.509 µM; in data set [3] it was 0.099 µM. In data set [4], the “effect on the cell viability” value was “no effect”.

`CCC(F)(F)c1ccc(-c2ccc(NC(=O)C3CC3c3ccc(Cl)cc3)cc2C(=O)O)cn1` (racemic) [Example 23, 5-({[2-(4-Chlorophenyl)cyclopropyl]carbonyl}amino)-2-[6-(1,1-difluoropropyl)pyridin-3-yl]benzoic acid]: the IC50 in data set [1] (setting [7]) was found to be 0.309 µM; in data set [5], 0.529 µM.

Turning to `O=C(O)c1cc(NC(=O)C2CC2c2ccc(Cl)cc2)cc(F)c1-c1ccc(C(F)(F)F)nc1` (racemic) [Example 24, 5-({[2-(4-chlorophenyl)cyclopropyl]carbonyl}amino)-3-fluoro-2-[6-(trifluoromethyl)pyridin-3-yl]benzoic acid], the IC50 in data set [1] (setting [7]) was determined as 1.08 µM; in data set [5] it was 2.33 µM.

In the case of `O=C(O)c1cc(NC(=O)C2CC2c2ccc(Cl)cc2)c(F)cc1-c1ccc(C(F)(F)F)nc1` (racemic) [Example 25, 5-({[2-(4-chlorophenyl)cyclopropyl]carbonyl}amino)-4-fluoro-2-[6-(trifluoromethyl)pyridin-3-yl]benzoic acid], the IC50 turned out to be 1.26 µM in data set [1] (setting [7]) and 4.73 µM in data set [5].

For `C[C@@H](NC(=O)C1(NC(=O)C(F)(F)F)CC1)c1ccc(-c2cccc(Cl)c2C(=O)O)cc1F` [MK-0686], the pharmacokinetic profile entry in data set [6] is given as “suboptimal”.

Turning to “(+)-5-({[trans-2-(4-chlorophenyl)cyclopropyl]carbonyl}amino)-2-(1-cyclobutyl-1H-pyrazol-4-yl)-3-fluorobenzoic acid [Example 3]”, the figures for the IC50 in data set [1] (setting [7]) and in data set [5] were 0.01 µM and 0.051 µM, respectively.

(Values after patent US20190177279A1, “CARBOXYLIC ACID AROMATIC 1,2-CYCLOPROPYLAMIDES” (Bayer Pharma Aktiengesellschaft, priority 2017, published 2019).)
